Results taken from US20030144213A1, “Combination therapy of angiotensin converting enzyme inhibitor, side-effect reduced amount of aldosterone antagonist and diuretic for treatment of cardiovascular disease” (G.D. Searle & Co., priority 1996, published 2003).

What was measured:
[1] = test system: patients afflicted with congestive heart failure; settings: coadministered with an ACE inhibitor; cited from earlier work
[2] = test system: hypertensive-rat cohort; settings: sub-cutaneously; hypertensive rats; cited from earlier work
[3] = test system: patients with symptomatic heart failure; test: Spironolactone dose-ranging clinical trial (12 weeks, added to ACE inhibitor, loop diuretic, optional digitalis)
[4] = test system: myocardial fibrosis in animal models; settings: cited from earlier work
[5] = test system: hypertensive patients; settings: cited from earlier work

SMILES | Patients in whom highly effective [1] | Fibrosis [2] | Mean systolic and diastolic blood pressure (standing and supine) ([3]; 25 mg, 50 mg and 75 mg groups, all visits) | Change from baseline in body weight ([3]; 75 mg dose group, Day 9 and Week 4) | Change from baseline in PRA, dose-response ([3]; Day 9, Week 4 and Week 12 (P≦0.001)) | Change from baseline in serum magnesium ([3]; Day 9 and Week 4 (p≦0.048), not at later visits) | Change from baseline in supine pulse, dose response ([3]; Week 4 (p-value=0.045)) | Hematocrit and hemoglobin vs placebo ([3]; Week 12 (p=0.002; 0.005)) | Urinary aldosterone excretion, dose response ([3]; Week 12 vs baseline (p=0.002)) | N-Terminal Atrial Natriuretic Factor (ANF) change ([3]; all active treatments, Day 9, Week 4, Week 12) | Deaths during the drug treatment period ([3]; all doses, 12 weeks) | Change from baseline in serum potassium, dose-response ([3]; all treatment period visits (p<0.001)) | Hyperkalemia adverse event, dose-response of incidence ([3]; p=0.001) | Patients who died within 30 days after the study was completed ([3]; previously at the 50 mg dose) | NYHA Class improvement ([3]; vs placebo, not statistically significant) | Myocardial fibrosis [4] | Likelihood of hyperkalemia on captopril vs another ACE-I ([3]; background ACE-I) | Plasma aldosterone despite continued ACE inhibition [5]
CC(=O)S[C@@H]1CC2=CC(=O)CC[C@]2(C)[C@H]2CC[C@@]3(C)[C@@H](CC[C@@]34CCC(=O)O4)[C@H]12 [Spironolactone, 17-hydroxy-7α-mercapto-3-oxo-17α-pregn-4-ene-21-carboxylic acid γ-lactone acetate] | 13 of 16 | prevent fibrosis in the hypertensive-rat cohort | decreases in mean systolic and diastolic blood pressure | more weight loss than other patients | higher doses of spironolactone associated with greater increases in PRA | statistically significant dose-response | greater decreases in pulse in the supine position at higher doses | lower levels for the active treatment groups | Greater increases were seen at higher doses of spironolactone | decreases from baseline at all treatment visits | No deaths | Higher doses of spironolactone were associated with larger increases in potassium | clear dose-response in term of incidence | Three | trend toward improvement | prevents myocardial fibrosis in animal models |  | 
C[C@H](CS)C(=O)N1CCC[C@H]1C(=O)O [Captopril, captopril] |  |  |  |  |  |  |  |  |  |  |  |  |  |  |  |  | about one-third as likely to develop hyperkalemia | gradual return of plasma aldosterone to baseline levels
